As usually defined, the IC50 is the concentration at which inhibition is half-maximal.

Like-named read-outs stand apart in the source and are kept apart here.

For data set [1], the system named is FIPV-1146. The data set is described as follows: Combination treatment of CA074-Me and GC373 on FIPV-1146 replication, MacSynergy II. The format is cell-based, feline coronavirus. The following applies: CA074-Me alone at 1, FIPV-infected CRFK cells. How it is done:
The CRFK cells were incubated with GC373 (0.02˜0.2 μM), CA074-Me (0.5˜5 μM), or the combinations of GC373 (0.02˜0.2 μM) and CA074-Me (0.5˜5 μM) for 1 hr at 37° C. prior to inoculation of FIPV-1146 at an MOI of 0.05. After 24 hrs of incubation, virus replication was assessed with virus titration using the TCID50 method. Drug-drug interactions were analyzed by the three-dimensional model of Prichard and Shipman, using the MacSynergy II software at 95% confidence limits. Theoretical additive interactions were calculated from the dose-response curve for each compound individually, and the calculated additive surface was subtracted from the experimentally determined dose-response surface to give regions of synergistic or antagonistic interactions. The resulting surface appears as horizontal plane at 0% of synergy if the interactions of two compounds are additive. Any peak above or below this plane indicates synergy or antagonism, respectively.

For data set [2], the system named is FIPV-1146. The data set is described as follows: FIPV-1146 replication in CRFK cells, TCID50 method. The format is cell-based, feline coronavirus. The following applies: MOI 0.05, mean ± SEM. As to the method: (§1) Crandell Rees feline kidney (CRFK) cells were maintained in minimal essential medium containing 2-5% fetal bovine serum and antibiotics (chlortetracycline [25 μg/ml], penicillin [250 U/ml], and streptomycin [250 μg/ml]). FIPV WSU 79-1146 and FECV WSU 79-1683 strains are the prototypes of serotype II FIPV or FECV, respectively, and were purchased from ATCC (Manassas, Va.).
(§2) The cells were further incubated in the presence of each compound for 1 hr at 37° C. Then […] or FECV-1683 was inoculated to the cells at a multiplicity of infection (MOI) of 0.05 or 5.
(§3) b. TCID50 Method. A standard TCID50 method with the 10-fold dilution of each sample was used for virus titration.

For data set [3], the system named is FECV-1683. Nature of the data set: FECV-1683 replication in CRFK cells, TCID50 method. The format is cell-based, feline coronavirus. The following applies: MOI 0.05, mean ± SEM. As to the method: as §1, §2, §3
The subject of data set [4] is norovirus (cell-based replicon system). Nature of the data set: Cell-based replicon system of norovirus (Example 4).
The target in data set [5] is Norwalk virus 3CL protease (NV3CL protease), recombinant (Norovirus, UniProt Q83883). The data set is described as follows: Recombinant NV protease FRET inhibition assay (Edans-[…]-Dabcyl substrate), FIG. 4. It is filed as biochemical. The following applies: 2.5 μM enzyme, 300 nM Edans-EPDFHLQGPEDLAK-Dabcyl, 30 min incubation, 30° C., pH 8.0. How it is done: (§4) After a 30 minute incubation period, 5 μL of 12 μM Edans-[…]-Dabcyl (SEQ ID NO:1) substrate in DMSO was then added and the increase in fluorescence was monitored for 30 minutes at an excitation and emission wavelength of 360 and 460 nm, respectively. Using a HORIBA FluoroMax 4 spectrofluorometer. Hydrolysis curves were linear. The final enzyme and substrate concentrations were 2.5 μM and 300 nM, respectively. […] Furthermore, the nature of the cap was also important (compare, for example, inhibitors A and D).
Sequence of Norwalk virus 3CL protease (NV3CL protease), recombinant (Q83883 1101-1281): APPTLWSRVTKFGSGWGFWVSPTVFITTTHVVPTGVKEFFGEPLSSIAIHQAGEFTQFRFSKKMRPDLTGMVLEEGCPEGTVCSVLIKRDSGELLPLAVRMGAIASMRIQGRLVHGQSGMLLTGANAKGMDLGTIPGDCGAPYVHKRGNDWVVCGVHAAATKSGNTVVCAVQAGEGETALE

The test system of data set [6] is norovirus (NV replicon-harboring HG23 cells). The data set is described as follows: NV replicon-harboring cells (HG23), NV genome levels by qRT-PCR (Example 1). It is filed as cell-based, Norwalk virus. The following applies: read-out: ED50, effective dose that inhibits 50% of norovirus replication, NV genome levels at 24 hrs post-treatment.
Data set [7] deals with murine norovirus-1 (MNV-1). Nature of the data set: MNV-1 replication in RAW267.4 cells, TCID50 (Example 1). It is filed as cell-based. The following applies: Norwalk virus, MOI 2, TCID50 assay, read-out: ED50, replication of murine norovirus (MNV).
Data set [8] has as its system HG23 cells. The following applies: human.
Data set [9] has as its target Norwalk virus 3CL protease (Norovirus, UniProt Q83883). Nature of the data set: Recombinant NV protease fluorogenic substrate inhibition assay (Example 1). The format is biochemical. The following applies: 30 min pre-incubation, 30° C., pH 8.0. How it is done:
as §4

Data set [10] relates to FCV. The data set is described as follows: Cell culture system, FCV replication in CRFK cells (Example 3). It is filed as cell-based, feline calicivirus. The following applies: at concentrations up to 50 μM or 100 μM.
The test system of data set [11] is MHV. The data set is described as follows: Cell culture system, MHV replication in CCL-9.1 cells (Example 3). The format is cell-based, mouse hepatitis virus. The following applies: at concentrations up to 50 μM or 100 μM.
For data set [12], the system named is MNV-1. Nature of the data set: Cell culture system, MNV-1 replication in RAW267.4 cells (Example 3). It is filed as cell-based, murine norovirus. The following applies: at concentrations up to 50 μM or 100 μM.
Data set [13] relates to cells used for virus replication. Nature of the data set: Non-specific cytotoxicity in the cells used for virus replication (Example 3). The format is cell-based. As to the method: Confluent cells grown in 96-well plates were treated with various concentrations (1 to 500 μM) of each compound for 72 h. Cell cytotoxicity was measured by a CytoTox 96® nonradioactive cytotoxicity assay kit (Promega, Madison, Wis.) and crystal violet staining. The In vitro therapeutic index was calculated by dividing the TD50 by the IC50.

Data set [14] has as its system coronavirus proteases (TGEV and SARS-CoV). It is filed as biochemical. The following applies: optimized FRET assay.
The mark [15] stands for this setting: 24 hr post infection, read-out: Inhibition [ED50 (μM)] against FIPV-1146, 24 hrs.
Where [16] appears, read: 48 hr post infection, read-out: Inhibition [ED50 (μM)] against FIPV-1146, 48 hrs.
The mark [17] stands for this setting: 24 hr post infection, read-out: Inhibition [ED50 (μM)] against FECV-1683, 24 hrs.
Setting [18] is: 48 hr post infection, read-out: Inhibition [ED50 (μM)] against FECV-1683, 48 hrs.

Sequence of Norwalk virus 3CL protease (Q83883 1101-1281): as above

Regarding `CCCNC(=O)[C@H]1O[C@@H]1C(=O)N[C@H](C(=O)N1CCC[C@H]1C(=O)OC)[C@@H](C)CC` (relative stereo) [CA074-Me, L-3-trans-((propylcarbamyl)oxirane-2-Carbonyl)-L-isoleucyl-L-proline methyl ester, reference compound], in [1], the “reduction of virus titers” value amounted to 0.5 log10. Also, the EC50 in [2] (setting [15]) is 2.5 ± 1.4 µM; in data set [2] (setting [16]) it was greater than 10 µM; in data set [3] (setting [17]) it was 4 ± 0.71 µM; in data set [3] (setting [18]) it was greater than 10 µM.
As to `CCOC(=O)[C@H]1O[C@@H]1C(=O)N[C@@H](CC(C)C)C(=O)NCCC(C)C` (relative stereo) [Inhibitor E64d, (2S,3S)-trans-epoxysuccinyl-L-leucylamido-3-methylbutane ethyl ester, reference compound], the EC50 in [2] (setting [15]) was 1.45 ± 0.49 µM; in data set [2] (setting [16]), greater than 10 µM; in data set [3] (setting [17]), 2.3 ± 0.28 µM; in [3] (setting [18]), greater than 10 µM.
For `CC(C)C[C@H](NC(=O)OCc1ccccc1)C(=O)N[C@@H](CC1CCNC1=O)C(O)C(=O)NC(C)C` (stereo partly drawn) [Inhibitor 5a], the “anti-norovirus activity in the cell-based replicon system (in words)” value in [4] is given as “noteworthy activity”.
As for `CC(C)NC(=O)C(O)[C@H](CC1CCNC1=O)NC(=O)[C@H](Cc1ccccc1)NC(=O)OCc1ccccc1` (stereo partly drawn) [Inhibitor 5h], the “anti-norovirus activity in the cell-based replicon system (in words)” value in data set [4] is given as “noteworthy activity”.
The same measure, in the same setting: for `CC(C)C[C@H](NC(=O)OCc1ccccc1)C(=O)N[C@@H](CC1CCNC1=O)C(O)c1nccs1` (stereo partly drawn) [Inhibitor 7b] the value was “noteworthy activity”.
`CC(C)C[C@H](NC(=O)OCc1ccccc1)C(=O)N[C@@H](CC1CCNC1=O)C(=O)c1ncco1` (stereo partly drawn) [Inhibitor 8a]: in data set [4] (read-out: ED50 in the cell-based replicon system), the EC50 was determined as 0.9 µM.
On to `CC(C)C[C@H](NC(=O)N1CCOCC1)C(=O)N[C@H](C=O)CC1CCNC1=O` (stereo partly drawn) [Inhibitor A], for which the IC50 in data set [5] is 7.2 µM.
With `CC(C)C[C@H](NC(=O)CNC(=O)OCc1ccccc1)C(=O)N[C@H](C=O)CC1CCNC1=O` (stereo partly drawn) [Inhibitor E], in data set [5], the IC50 was found to be 1.45 µM. The EC50 in [6] was 7.8 µM; in [7], 20.3 µM. For the same compound, the “TD50, median toxic dose” value in data set [8] was greater than 320 µM. Further, in data set [9], the “inhibitory activity against Norwalk virus 3CL protease (in words)” value (shortened to “inhibitory activity”) is given as “improved potency, albeit not dramatically”.
Take `CCCC[C@H](NC(=O)CNC(=O)OCc1ccccc1)C(=O)N[C@H](C=O)CC1CCNC1=O` (stereo partly drawn) [Inhibitor G]: the IC50 in data set [5] came to 0.87 µM. Also, the “inhibitory activity” value in data set [9] was “sub-micromolar inhibitor”.
Take `CCC(C)[C@H](NC(=O)CNC(=O)OCc1ccccc1)C(=O)N[C@H](C=O)CC1CCNC1=O` (stereo partly drawn) [Inhibitor I]: the “inhibitory activity” value in [9] is “detrimental to inhibitory activity”.
For the compound `CCOC(=O)/C=C/[C@H](C[C@@H]1CCNC1=O)NC(=O)[C@@H](CC(=O)[C@@H](NC(=O)c1cc(C)on1)C(C)C)Cc1ccc(F)cc1` [Rupintrivir], the “inhibition of replication of FCV (in words)” value in data set [10] is recorded as “did not inhibit the replication”. Moreover, the “inhibition of replication of MHV (in words)” value in data set [11] was “did not inhibit the replication”. For the same compound, the “inhibition of replication of MNV-1 (in words)” value in [12] is recorded as “did not inhibit the replication”. Further, in [13], the “non-specific cytotoxicity: none shown up to this concentration” value was greater than 500 µM. The “activity against the coronavirus proteases compared to GC373 and GC376 (in words)” value in data set [14] is given as “substantially less effective”.

The values above are taken from patent US9474759B2 (priority 2011, dated 2016).
